Assay results taken from patent US20210244686A1, “Novel Systems And Methods For The Therapeutic Use of Cannabinoids or Cannabinoid Analogs to Increase The Lipid Order of Cholesterol Containing Cell Membranes” (The Regents of the University of Colorado a body corporate, priority 2018, published 2021).

Experiments:
[1] = tested on: SKNBE2 neuroblastoma cells; assay: Flow cytometric analysis of rhodamine-glibenclamide staining in live cells; assay type: cell-based, human; settings: live cells, flow cytometry
[2] = tested on: endoplasmic reticulum in SKNBE2 and HaCaT keratinocyte cells; assay: Confocal microscopy of rhodamine-glibenclamide staining, ER structure; assay type: cell-based, human; settings: for alteration of the structure of the endoplasmic reticulum: SKNBE2 and HaCaT keratinocyte cells
Description: FIG. 16. Rhodamine-glibenclamide staining in live cells is visualized by confocal microscopy in live cells. ER structure is perturbed after 2 hours of exposure to CBD and o-1602, but not for o-1821 exposure.

SK-N-BE(2) cells = assay: Live cell microscopy apoptosis assay (caspase 3/7 dye); settings: for apoptotic response to combinatorial 25-hydroxy cholesterol/CBD treatment: 25-hydroxy cholesterol 15 μg/ml, CBD 20 μM, U18666A 10 μM or VULM 1457 5 μM, 24 hours
Description: To accurately measure cellular apoptosis over time, the present inventors performed live cell microscopy experiments with cells loaded with both DNA and caspase 3/7 dyes, which enables continuous and precise quantification of apoptosis at the single cell level.
Cell viability for SK-N-BE(2) cells was conducted using a fluorometric cell viability assay using Resazurin (PromoKine) according to the manufacturer's instructions. […] Dyes were added at the time of seeding, 18-24 hours prior to performing experiments.
Experiments were performed using an ImageXpress MicroXL microscope and a 10× objective, where images were acquired for each well at the indicated time-points using DAPI and FITC filter sets. […] Percent apoptotic cells was calculated from the sum of apoptotic cell pixels divided by the sum of all cell pixels for each field of view.

HEK293T cells = assay: as above; assay type: cell-based; settings: for apoptotic response to combinatorial 25-hydroxy cholesterol/CBD treatment: 25-hydroxy cholesterol 15 μg/ml, CBD 20 μM, U18666A 10 μM or VULM 1457 5 μM, 24 hours
Description: In order to gain further insight into the sensitivity of CBD treated cells to 25-hydroxy cholesterol, the present inventors repeated the apoptosis assay in SK-N-BE(2) and HEK293T cells with combinatorial 25-hydroxy cholesterol/CBD stimulation using sublethal doses of 25-hydroxy cholesterol (15 μg/ml) and CBD (20 μM) in the presence or absence of either the chemical inhibitor of cholesterol transport (U18666A, 10 μM) or cholesterol storage (VULM 1457, 5 μM).
FRAP experiments reveal that DHA and CBD have opposing effects on the lateral diffusion of fluorescently labelled cholesterol in synthetic membranes. Although this implies that CBD increases lipid order and that DHA decreases lipid order, it remains unclear how relevant these biophysical effects of CBD and DHA are to cellular physiology. As a result, the present inventors sought to determine whether CBD and DHA have opposing effects on cells. To this end, the present inventors repeated the live cell apoptosis assays in cells exposed to increasing doses of DHA to determine how DHA affects cell death.

[3] = FRAP of NBD-cholesterol in synthetic membrane monolayers; settings: DHA 20 μM plus CBD
Source text: CBD's ability to affect cholesterol orientation in both synthetic and cell derived ER membranes implies that CBD may contribute to increased lipid order. The ability of cholesterol oxidase assays to reveal alterations in lipid order has been previously reported in studies noting that cholesterol oxidase can preferentially target caveolar domains, which are ordered lipid domains. Another hallmark of lipid order is a decrease in lateral diffusion of lipids. As a result, the present inventors aimed to measure CBD's ability to perturb the lateral diffusion of fluorescently labelled cholesterol (NBD-cholesterol) in synthetic membranes. The present inventors deposited PC SUVs containing 20% moles of cholesterol and 2% moles NBD-cholesterol on glass-bottom multi-well imaging plates, followed by ultra-sonification to construct fluorescently labelled membrane monolayers. Using these monolayers and confocal microscopy, the inventor's performed fluorescence recovery after photobleaching (FRAP) experiments to measure the kinetics of recovery of fluorescent cholesterol. […] This effect of CBD on lateral diffusion could be rescued with simultaneous treatment with the lipid disordering agent DHA (FIGS. 6G, I). There are two proposed models for how DHA affects cholesterol in membranes. […]

[4] = DHA 75 μM with MBCD 300 μM or CBD 6.25 μM

Row | Molecule | rhodamine-glibenclamide fluorescence [1] | alteration of the structure of the endoplasmic reticulum [2] | also measured
1 | C=C(C)[C@@H]1CCC(C)=C[C@H]1c1c(O)cc(CCCCC)c(C(=O)O)c1O [Cannabidiolic Acid, cannabidiolic acid] | Enhanced fluorescence | not | 
2 | C=C(C)[C@@H]1CCC(C)=C[C@H]1c1c(C)cc(O)cc1O [o-1602, 5-methyl-4-[(1R,6R)-3-methyl-6-(1-methylethenyl)-2-cyclohexen-1-yl]-1,3-benzenediol] | Enhanced fluorescence | observed | ER structure ([2]; after 2 hours of exposure, live cells): perturbed
3 | CC/C=C\C/C=C\C/C=C\C/C=C\C/C=C\C/C=C\CCC(=O)O [DHA] |  |  | apoptosis (SK-N-BE(2) cells; relatively low doses of DHA): induce apoptosis; apoptosis (HEK293T cells; relatively low doses of DHA): induce apoptosis; effect of CBD on lateral diffusion with simultaneous DHA [3]: rescued
4 | CC(C)c1cccc(C(C)C)c1NC(=O)Nc1ccc(Sc2ccc([N+](=O)[O-])cc2)cc1 [VULM 1457] |  |  | apoptotic response to combinatorial 25-hydroxy cholesterol/CBD treatment (SK-N-BE(2) cells): restore the apoptotic response; apoptotic response to combinatorial 25-hydroxy cholesterol/CBD treatment (HEK293T cells): restore the apoptotic response
5 | methyl beta cyclodextrin [MBCD] |  |  | effect on DHA induced apoptosis (SK-N-BE(2) cells; [4]): completely cancel apoptosis; effect on DHA induced apoptosis (HEK293T cells; [4]): delay apoptosis
6 | C[C@H](CO)NC(=O)CCC/C=C\C/C=C\C/C=C\C/C=C\C(C)(C)CCCCC#N [o-1821] | Enhanced fluorescence | not | 
7 | CCN(CC)CCO[C@H]1CC[C@@]2(C)C(=CC[C@@H]3[C@@H]2CC[C@]2(C)C(=O)CC[C@@H]32)C1 [U18666A] |  |  | apoptotic response to combinatorial 25-hydroxy cholesterol/CBD treatment (SK-N-BE(2) cells): restore the apoptotic response; apoptotic response to combinatorial 25-hydroxy cholesterol/CBD treatment (HEK293T cells): restore the apoptotic response
8 | CCCCCCC(C)(C)c1cc(OC)c(C2C=C(CO)C3CC2C3(C)C)c(OC)c1 (stereo not drawn) [HU-308, 4-[4-(1,1-dimethylheptyl)-2,6-dimethoxyphenyl]-6,6-dimethyl-bicyclo[3.1.1]hept-2-ene-2-methanol] | Enhanced fluorescence |  | 
9 | O=C1[C@H](CC[C@H](O)c2ccc(F)cc2)[C@@H](c2ccc(O)cc2)N1c1ccc(F)cc1 [Ezetimibe] | Enhanced fluorescence |  | 
10 | CC(C)c1c(C(=O)Nc2ccccc2)c(-c2ccccc2)c(-c2ccc(F)cc2)n1CC[C@@H](O)C[C@@H](O)CC(=O)O [Atorvastatin] | Enhanced fluorescence |  | 
11 | C=C(C)[C@@H]1CCC(C)=C[C@H]1c1c(O)cc(O)cc1CCCCC [abnormal CBD, 4-[(1R,6R)-3-Methyl-6-(1-methylethenyl)-2-cyclohexen-1-yl]-5-pentyl-1,3-benzenediol] | Enhanced fluorescence | not | 
